# In patent US4764506A, “N^6 -(benzothien-3-yl)ethyl adenosine; N^6 -(benzothien-3-yl)ethyl adenosine, S-oxide; and N^6 -(benzothien-3-yl)ethyl S,S-dioxide adenosine” (Warner-Lambert Company, priority 1986, dated 1988):
# What was measured:
# [1] = Mouse Activity and Screen Test Procedure (MAST): inhibition of spontaneous locomotion (actophotometer) and overall dose rating; format: in vivo, mouse (Swiss-Webster, male); conditions: IP
# From the text: (§1) The compounds of the invention are new chemical substances which are useful as pharmaceutical agents for the treatment of psychoses. The antipsychotic activity of representative compounds of the invention was established by the Mouse Activity and Screen Test Procedure (MAST) described below.
# (§2) Nine unfasted Swiss-Webster male mice weighing 20-30 g are equally divided into three groups for each drug dose to be tested. That is, data for each dose level was generated by three separate groups of three mice each.
# (§3) A minimum of three dose levels (10, 30, and 100 mg/kg) are tested for each drug. Treatments are administered intraperitoneally one hour prior to testing. All dosages are calculated as parent compound and given in volumes of 10 ml/kg. Compounds are dissolved or suspended in 0.2% Methocel. Control animals are injected with Methocel.
# (§4) Testing: A two part testing procedure is started one hour postinjection. First, the screen test (ST) is performed (see Pharmac. Biochem. Behav. 6, 351-353, 1977). Briefly this test consists of placing mice on individual wire screens which are then rotated 180 degrees at the start of a 60 second observation period. The number of mice falling off the inverted screen is recorded.
# Immediately following the screen test, the final phase of testing is initiated by placing each group of three mice in one actophotometer (Life Sciences, 22, 1067-1076, 1978). The actophotometer consists of a cylindrical chamber whose center is occupied by another cylinder which contains the illumination for six photocells located on the perimeter of the chamber. Six light-beam interruptions equal one count. Locomotor activity is recorded by computer at ten minute intervals for 60 minutes.
# (§5) Data: The data obtained from the screen test are expressed as percent of mice falling off the screen. Data derived from locomotor activity of drug treated mice are compared to the activity of vehicle treated animals and are expressed as percent inhibition of spontaneous locomotion. All percentages reported for inhibition of locomotion (LI) are based upon data accumulated for one hour. Both phases of testing are graded: A=60-100%; C=31-59%; and N=0-30%. An overall dose rating is obtained by the following criteria:
# (§6) LAD refers to the lowest dose at which an A rating is achieved. […] Utilizing this procedure, an overall dose rating of A was obtained for the noted compound at the indicated dose. The compounds are identified in the Examples.
# adenosine A1 receptor = biological target: T1, adenosine A1 receptor (Rattus norvegicus, UniProt P25099); experiment: Adenosine Receptor Binding--A1 Receptor Affinity (RBA1), [3H]-CHA displacement, rat whole brain membranes; set-up: species or system rat (Long Evans); conditions: 1.0 nM [3H]-CHA, pH 7.7, 25° C., read-out: RBA-1
# T1 construct: Whole brain minus cerebellum and brainstem from male Long Evans rats; from tissue; host or cells: rat whole brain minus cerebellum and brainstem, membranes (male Long Evans)
# T1 sequence (P25099 1-326): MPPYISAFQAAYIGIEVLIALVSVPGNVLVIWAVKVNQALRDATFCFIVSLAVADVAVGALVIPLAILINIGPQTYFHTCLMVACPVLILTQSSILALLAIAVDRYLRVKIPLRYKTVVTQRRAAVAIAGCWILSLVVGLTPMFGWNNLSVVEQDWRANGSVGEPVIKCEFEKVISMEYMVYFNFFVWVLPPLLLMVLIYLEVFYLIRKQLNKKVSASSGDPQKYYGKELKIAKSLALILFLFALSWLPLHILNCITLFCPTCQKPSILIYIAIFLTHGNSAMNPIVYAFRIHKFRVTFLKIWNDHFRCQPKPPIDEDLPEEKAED
# Description: Whole brain minus cerebellum and brainstem from male Long Evans rats (150-200 g) was homogenized in 30 volumes of ice-cold 0.05 M Tris-HCl buffer pH 7.7 using a Brinkman Polytron PT-10, (setting number 6 for 20 seconds) and centrifuged for ten minutes at 20,000×g (Sorvall RC-2), 4° C. The supernatant was discarded, and the pellet was resuspended and centrifuged as before. The pellet was resuspended in 20 ml Tris-HCl buffer containing two International Units/ml of adenosine deaminase (Sigma type III from calf intestinal mucosa), incubated at 37° C. for 30 minutes, then subsequently at 0° C. for ten minutes. The homogenate was again centrifuged, and the final pellet was resuspended in ice-cold 0.05 M Tris-HCl buffer pH 7.7 to a concentration of 20 mg/ml original wet tissue weight and used immediately.
# Tissue homogenate (10 mg/ml) was incubated in 0.05 M Tris-HCl buffer pH 7.7 containing 1.0 nM [^3 H]-N^6 -cyclohexyladenosine (^3 H]-CHA) with or without test agents in triplicate for one hour at 25° C. Incubation volume was 2 ml. Unbound [^3 H]-CHA was separated by rapid filtration under reduced pressure through Whatman glass fiber (GF/B) filters. The filters were rinsed three times with 5 ml of ice cold 0.05 M Tris-HCl buffer pH 7.7. The radio-labeled ligand retained on the filter was measured by liquid scintillation spectrophotometry after shaking the filters for one hour or longer on a mechanical shaker in 10 ml of Beckman Ready-Solv HP scintillation cocktail.
# Nonspecific binding was defined as the binding which occurred in the presence of 1 mM theophylline. The concentration of test agent which inhibited 50% of the specific binding (IC50) was determined by nonlinear computer curve fit. The Scatchard plot was calculated by linear regression of the line obtained by plotting the amount of radioligand bound [formula] Since the amount of radioligand bound was a small fraction of the total amount added, free radioligand was defined as the concentration (nM) of radioligand added to the incubation mixture. The Hill coefficient was calculated by linear regression of the line obtained by plotting the log of the bound radioligand vs the log of the [formula] The maximal number of binding sites (Bmax) was calculated from the Scatchard plot.
# adenosine A2 receptor = biological target: T2, adenosine A2 receptor (Rattus norvegicus, UniProt P30543); experiment: Adenosine Receptor Binding--A2 Receptor Affinity (RBA2), [3H]NECA displacement, rat striatal membranes; set-up: species or system rat (Sprague-Dawley); conditions: 4 nM [3H]NECA, 50 nM N6-cyclopentyladenosine, rat striatum, 25° C., read-out: RBA-2
# T2 construct: Brains were thawed and then kept on ice while the striata were dissected out; tissue Pel-Freez (Rogers, Ark.); host or cells: rat striatum, membranes (mixed sex Sprague-Dawley)
# Description: Brains from 200-500 g mixed sex Sprague-Dawley rats were purchased from Pel-Freez (Rogers, Ark.). Fresh brains from male Long-Evans hooded rats (Blue Spruce Farms, Altamont, N.Y.) gave essentially identical results. Brains were thawed and then kept on ice while the striata were dissected out. Striata were disrupted in 10 vol of ice-cold 50 mM Tris.HCl (pH 7.7 at 25° C., pH 8.26 at 5° C.) (Tris) for 30 seconds in a Polytron PT-10 (Brinkmann) at setting 5. The suspension was centrifuged at 50,000 xg for ten minutes, the supernatant discarded, the pellet resuspended in 10 vol ice-cold Tris as above, recentrifuged, resuspended at 1 g/5 ml, and stored in plastic vials at -70° C. (stable for at least six months). When needed, tissue was thawed at room temperature, disrupted in a Polytron, and kept on ice until used.
# All incubations were for 60 minutes at 25° C. in 12×75 mm glass tubes containing 1 ml Tris with 5 mg original tissue weight of rat weight of rat striatal membranes, 4 nM [^3 H]-N-ethyl adenosine-5'-carboxamide ([^3 H]NECA), 50 nM N^6 -cyclopentyladenosine (to eliminate A1 receptor binding), 10 mM MgCl2, 0.1 units/ml of adenosine deaminase and 1% dimethylsulfoxide. N^6 -Cyclopentyladenosine was dissolved at 10 mM in 0.02N HCl and diluted in Tris. Stock solutions and dilutions of N^6 -cyclopentyladenosine could be stored at -20° C. for several months. Test compounds were dissolved at 10 mM in dimethylsulfoxide on the same day as the experiment, and diluted in dimethylsulfoxide to 100× the final incubation concentration. Control incubations received an equal volume (10 μl) of dimethylsulfoxide; the resulting concentration of dimethylsulfoxide had no effect on binding. [^3 H]NECA was diluted to 40 nM in Tris. The membrane suspension (5 mg/0.79 ml) contained sufficient MgCl2 and adenosine deaminase to give 10 mM and 0.1 units/ml, respectively, final concentration in the incubation. […]
# Incubations were terminated by filtration through 2.4 cm GF/B filters under reduced pressure. […] Filters were put in scintillation vials, 8 ml of Formula 947 scintillation fluid added, and the vials left overnight, shaken, and counted in a liquid scintillation counter at 40% efficiency.
# Nonspecific binding was defined as binding in the presence of 100 μM N^6 -cyclopentyladenosine, and specific binding was defined as total binding minus nonspecific binding. The IC50 was calculated by weighted nonlinear least squares curve-fitting to the mass-action equation. […]
# Weighting factors were calculated under the assumption that the standard deviation was proportional to the predicted value of Y. Nonspecific binding was treated as a very large (infinite) concentration of drug in the computer analysis.
# [2] = Mouse Activity and Screen Test Procedure (MAST): screen test (mice falling off inverted screen); format: in vivo, mouse (Swiss-Webster, male); conditions: IP
# From the text: as §1, §2, §3, §4, §5, §6
# [3] = Mouse Activity and Screen Test Procedure (MAST): inhibition of spontaneous locomotion (actophotometer) and overall dose rating; format: in vivo, mouse (Swiss-Webster, male); conditions: PO
# [4] = Mouse Activity and Screen Test Procedure (MAST): screen test (mice falling off inverted screen); format: in vivo, mouse (Swiss-Webster, male); conditions: PO
# T2 sequence (P30543 whole entry): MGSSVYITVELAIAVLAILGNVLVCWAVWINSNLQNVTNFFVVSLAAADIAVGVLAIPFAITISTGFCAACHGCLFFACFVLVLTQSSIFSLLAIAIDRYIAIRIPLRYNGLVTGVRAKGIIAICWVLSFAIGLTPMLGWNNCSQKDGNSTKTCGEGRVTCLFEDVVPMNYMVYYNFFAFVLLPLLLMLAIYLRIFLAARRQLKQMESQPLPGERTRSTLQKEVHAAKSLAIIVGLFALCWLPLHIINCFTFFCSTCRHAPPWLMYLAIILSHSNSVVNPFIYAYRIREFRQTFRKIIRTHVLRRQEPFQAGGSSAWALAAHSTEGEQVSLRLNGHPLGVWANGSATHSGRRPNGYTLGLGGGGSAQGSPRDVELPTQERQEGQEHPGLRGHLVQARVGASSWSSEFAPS
SMILES,Inhibition of Mouse Locomotion Activity ([1]; 3 mg/kg) [%],Inhibition of Mouse Locomotion Activity ([1]; 10 mg/kg) [%],Inhibition of Mouse Locomotion Activity ([1]; 30 mg/kg) [%],IC50 (adenosine A1 receptor) [nM],IC50 (adenosine A2 receptor) [nM],Screen Test Failure ([2]; 3 mg/kg) [%],Screen Test Failure ([2]; 10 mg/kg) [%],Screen Test Failure ([2]; 30 mg/kg) [%],Inhibition of Mouse Locomotion Activity ([3]; 3 mg/kg) [%],Inhibition of Mouse Locomotion Activity ([3]; 10 mg/kg) [%],Inhibition of Mouse Locomotion Activity ([3]; 30 mg/kg) [%],Screen Test Failure ([4]; 3 mg/kg) [%],Screen Test Failure ([4]; 10 mg/kg) [%],Screen Test Failure ([4]; 30 mg/kg) [%]
"OC[C@H]1O[C@@H](n2cnc3c(NCCc4csc5ccc(Cl)cc45)ncnc32)[C@H](O)[C@@H]1O [Example 3, N-[2-(5-chlorobenzo[b]thien-3-yl)ethyl]adenosine]",27,54,86,4.5,549,0,0,0,,,,,,
"COc1ccc2c(CCNc3ncnc4c3ncn4[C@@H]3O[C@H](CO)[C@@H](O)[C@H]3O)csc2c1 [Example 1, N-[2-(6-methoxybenzo[b]thien-3-yl)ethyl]adenosine]",23,48,92,7.7,343,0,11,11,12,42,84,17,0,44
"Cc1ccc2scc(CCNc3ncnc4c3ncn4[C@@H]3O[C@H](CO)[C@@H](O)[C@H]3O)c2c1 [Example 4, N-[2-(5-methylbenzo[b]thien-3-yl)ethyl]adenosine]",48,63,89,4.3,413,0,0,0,,,,,,
"OC[C@H]1O[C@@H](n2cnc3c(NCCc4csc5ccccc45)ncnc32)[C@H](O)[C@@H]1O [Example 2, N-[2-(benzo[b]thien-3-yl)ethyl]adenosine]",21,30,63,12,303,0,11,0,,,,,,
